In patent US6706839B1, “Chemical partitioning agents and methods of using same” (University of Pittsburgh, priority 1999, dated 2004):

Assay: Solubility of stilbene precipiton isomers in organic solvents (qualitative observations)
Type: physicochemical
Conditions: for solubility in THF: reaction solvent of the Z to E isomerization
Experimental: When a solution of (Z)-stilbene (51Z or 52Z) in THF was heated to reflux at 80-90° C. in the presence of Ph2S2 (0.2 equiv) for several hours, the Z to E isomerization occurred smoothly. The reaction was followed by ^1H NMR (either vinylic protons or NMe2 (51Z), OMe (52Z)). As the reaction proceeded, solid precipitate came out of the solution. […] The E-isomer was obtained pure in a 44% (51E) and 79% (52E) yield, respectively without any contamination of either Z-isomer or Ph2S2. […] In high-boiling solvents such as toluene and p-dioxane, the isomerization was faster than in THF and the reaction was completed in less than 3 h (Table 32). A second catalytic method for isomerization/precipitation employs iodine and a radical initiator, for example dibenzoylperoxide. Irradiation of the cis-alkenes in the presence of 1-50 mol % iodine and 0.1-25 mol % dibenzoylperoxide affords clean isomerization of the cis to trans alkene.
(2-Naphthalenylmethyl)triphenylphosphonium bromide ((a) Tinnemans, A. H. A.; Laarhoven, W. H. J. Chem. Soc. Perkin. Trans. 2, 1976, 1104-1111. (b) Zelikovich, L.; Hoffman, R. E.; Ayalon, A.; Rabinovitz, M. J. Chem. Soc. Perkin. Trans. 2, 1992, 1785-1792) was treated with NaH in DMF to generate a corresponding ylide. A solution of 4-methoxy-1-naphthaldehyde in DMF was added and stirred at 35-50° C. for 2 h at to give 1,2-naphthylstilbene 53 in 51% yield (53Z:53E=1:1.2). 6-Methoxy-2-naphthaldehyde ((a) Harvey, R. G.; Cortez, C.; Sawyer, T. W.; DiGiovanni, J.; J. Med. Chem. 1988, 31, 1308-1312. (b) Harvey, R. G.; Cortez, C. Tetrahedron, 1997, 53, 7101-7118) was prepared by formylation (Beringer, F. M.; Nathan, R. A. J. Org. Chem. 1969, 34, 685-689) of 6-methoxy-2-bromonaphthalene in 53% yield. When (2-naphthalenylmethyl)-triphenylphosphonium bromide was reacted with 6-methoxy-2-naphthaldehyde in a similar manner as 1,2-naphthylstilbene, (Z)-2,2-naphthylstilbene 54Z was prepared in 39% isolated yield. […]

solubility in Et2O, compared with 52E (Et2O, trituration solvent, relative to 52E)	solubility in THF	SMILES
bigger solubility	partially soluble	CN(C)c1ccc(/C=C/c2ccc(Br)cc2)cc1 [51E]
	partially soluble	COc1ccc(/C=C/c2ccc(-c3ccccc3)cc2)cc1 [52E]
